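Five compound concentrations were applied to cells in 96-well plates for 48 hours; endpoints were derived by simple linear interpolation of the resulting dose-response curve. At the GI50, growth is halved. At the TGI there is no net growth.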
How the values were obtained:
Assay in all cases: DTP human tumour cell line panel, 48 h
[1] = test system: MCF7 breast
[2] = test system: HCC-2998 colon
[3] = test system: SF-268 CNS
[4] = test system: RPMI-8226 leukemia
[5] = test system: OVCAR-5 ovarian
[6] = test system: LOX IMVI melanoma
[7] = test system: MALME-3M melanoma
[8] = test system: A549 NSCLC
[9] = test system: NCI-H460 lung
[10] = test system: SF-539 CNS
[11] = test system: OVCAR-4 ovarian
[12] = test system: UO-31 renal
[13] = test system: NCI-H226 lung
[14] = test system: HOP-62 NSCLC
[15] = test system: OVCAR-8 ovarian
[16] = test system: MDA-MB-435
[17] = test system: NCI-H23 lung
[18] = test system: SNB-19 CNS
[19] = test system: DU-145 prostate
[20] = test system: TK-10 renal
[21] = test system: KM12 colon
[22] = test system: MDA-MB-231 breast
[23] = test system: COLO 205 colon
[24] = test system: K-562 leukemia
[25] = test system: SF-295 CNS
[26] = test system: PC-3 prostate
[27] = test system: HT29 colon
[28] = test system: SR leukemia
[29] = test system: CAKI-1 renal
[30] = test system: T-47D breast
[31] = test system: SK-MEL-2 melanoma
[32] = test system: BT-549 breast
[33] = test system: ACHN renal
[34] = test system: HCT-116 colon
[35] = test system: SW-620 colon
[36] = test system: HCT-15 colon
[37] = test system: IGROV1 ovarian
[38] = test system: 786-0 renal
[39] = test system: SK-MEL-5 melanoma
[40] = test system: NCI/ADR-RES ovarian
[41] = test system: UACC-62 melanoma
[42] = test system: UACC-257 melanoma
[43] = test system: SK-OV-3 ovarian
[44] = test system: OVCAR-3 ovarian
[45] = test system: M14 melanoma
[46] = test system: EKVX NSCLC
[47] = test system: U251 CNS
[48] = test system: HOP-92 NSCLC
[49] = test system: SN12C renal
[50] = test system: A498 renal
[51] = test system: CCRF-CEM leukemia
[52] = test system: NCI-H522 lung
[53] = test system: MOLT-4 leukemia
[54] = test system: HL-60(TB) leukemia
[55] = test system: HS 578T breast

SMILES: COCP1(=S)OC(C)CCN1C(C)C (stereo not given)
- TGI [1]: > 100 µM
- TGI [2]: > 100 µM
- TGI [3]: > 100 µM
- TGI [4]: > 100 µM
- TGI [5]: > 100 µM
- TGI [6]: > 100 µM
- TGI [7]: > 100 µM
- TGI [8]: > 100 µM
- TGI [9]: > 100 µM
- TGI [10]: > 100 µM
- TGI [11]: > 100 µM
- TGI [12]: > 100 µM
- TGI [13]: > 100 µM
- TGI [14]: > 100 µM
- TGI [15]: > 100 µM
- TGI [16]: > 100 µM
- TGI [17]: > 100 µM
- TGI [18]: > 100 µM
- TGI [19]: > 100 µM
- TGI [20]: > 100 µM
- TGI [21]: > 100 µM
- TGI [22]: > 100 µM
- TGI [23]: > 100 µM
- TGI [24]: > 100 µM
- TGI [25]: > 100 µM
- TGI [26]: > 100 µM
- TGI [27]: > 100 µM
- TGI [28]: > 100 µM
- TGI [29]: > 100 µM
- TGI [30]: > 100 µM
- TGI [31]: > 100 µM
- TGI [32]: > 100 µM
- TGI [33]: > 100 µM
- TGI [34]: > 100 µM
- TGI [35]: > 100 µM
- TGI [36]: > 100 µM
- TGI [37]: > 100 µM
- TGI [38]: > 100 µM
- TGI [39]: > 100 µM
- TGI [40]: > 100 µM
- TGI [41]: > 100 µM
- TGI [42]: > 100 µM
- TGI [43]: > 100 µM
- TGI [44]: > 100 µM
- TGI [45]: > 100 µM
- TGI [46]: > 100 µM
- TGI [47]: > 100 µM

SMILES: O=C1C=CC(=O)C(c2cc(-c3ccc(Cl)cc3)nn2-c2ccccc2)=C1
- GI50 [1]: 18.8 µM
- TGI [1]: > 100 µM
- GI50 [2]: 18.8 µM
- TGI [2]: 34.4 µM
- GI50 [3]: 21 µM
- TGI [3]: 50 µM
- GI50 [4]: 16.1 µM
- TGI [4]: 41 µM
- GI50 [48]: 23.5 µM
- TGI [48]: 67.2 µM
- GI50 [5]: 27.2 µM
- TGI [5]: 72.1 µM
- GI50 [49]: 23.5 µM
- TGI [49]: 46.9 µM
- GI50 [8]: 21.9 µM
- TGI [8]: 55.7 µM
- GI50 [9]: 32.2 µM
- TGI [9]: > 100 µM
- GI50 [10]: 27.1 µM
- TGI [10]: 51.1 µM
- GI50 [12]: 38.1 µM
- TGI [12]: > 100 µM
- GI50 [50]: 10.7 µM
- TGI [50]: 48.9 µM
- GI50 [13]: 16.9 µM
- TGI [13]: 59.6 µM
- GI50 [51]: 11.7 µM
- TGI [51]: 81.8 µM
- GI50 [15]: 40.5 µM
- TGI [15]: > 100 µM
- GI50 [16]: 20.5 µM
- TGI [16]: 46 µM
- GI50 [17]: 17.5 µM
- TGI [17]: 42.9 µM
- GI50 [19]: 25.4 µM
- TGI [19]: 91.1 µM
- GI50 [20]: 19.3 µM
- TGI [20]: 45 µM
- GI50 [21]: 19 µM
- TGI [21]: 44.3 µM
- GI50 [22]: 12.2 µM
- TGI [22]: 29 µM
- GI50 [52]: 25.9 µM
- TGI [52]: 71.7 µM
- GI50 [24]: 31.1 µM
- TGI [24]: > 100 µM
- GI50 [25]: 29.3 µM
- TGI [25]: 66.3 µM
- GI50 [53]: 37.4 µM
- TGI [53]: > 100 µM
- GI50 [26]: 17.4 µM
- TGI [26]: 41.6 µM
- GI50 [28]: 34.4 µM
- TGI [28]: > 100 µM
- GI50 [29]: 25.8 µM
- TGI [29]: 53.5 µM
- GI50 [31]: 51.3 µM
- TGI [31]: > 100 µM
- GI50 [32]: 38 µM
- TGI [32]: 99.6 µM
- GI50 [33]: 20.6 µM
- TGI [33]: 41.8 µM
- GI50 [35]: 32.9 µM
- TGI [35]: > 100 µM
- GI50 [36]: 30.4 µM
- TGI [36]: > 100 µM
- GI50 [37]: 35.8 µM
- TGI [37]: > 100 µM
- GI50 [54]: 36.2 µM
- TGI [54]: > 100 µM
- GI50 [38]: 16.9 µM
- TGI [38]: 36.9 µM
- GI50 [39]: 18.3 µM
- TGI [39]: 39 µM
- GI50 [40]: 23.4 µM
- TGI [40]: 54.7 µM
- GI50 [41]: 16.6 µM
- TGI [41]: 30.7 µM
- GI50 [42]: 29.7 µM
- TGI [42]: 71.3 µM
- GI50 [44]: 24.8 µM
- TGI [44]: 54.6 µM
- GI50 [45]: 16.9 µM
- TGI [45]: 35.9 µM
- GI50 [46]: 41.6 µM
- TGI [46]: > 100 µM
- GI50 [55]: 23.7 µM
- TGI [55]: 86.3 µM

From PubChem BioAssay (NCI)
